Where two headings read alike, the source gives them in different places.
Test system: Mycosphaerella graminicola; Anamorph: Septoria tritici; Bayer Code SEPTTR
Test: Leaf blotch of wheat, foliar fungicide treatment, one day protectant (1DP) or three day curative (3DC)
Format: in vivo, Septoria tritici on wheat plants (variety Yuma)
Details: Zymoseptoria tritici, percent disease control rating
[1] = 24 h, one day protectant (1DP), read-out: SETTTR 1DP 25 ppm
[2] = 24 h, one day protectant (1DP), read-out: SEPTTR 1DP 100 ppm
[3] = 72 h, three day curative (3DC), read-out: SEPTTR 3DC 25 ppm
[4] = 72 h, three day curative (3DC), read-out: SEPTTR 3DC 100 ppm

Structure (SMILES)	pest or weed control at 25 ppm [1]	pest or weed control at 100 ppm [2]	pest or weed control at 25 ppm [3]	pest or weed control at 100 ppm [4]
Nc1nc(OCc2cccc(Br)c2)ncc1F [Compound 2, 2-(3-Bromobenzyloxy)-5-fluoropyrimidin-4-ylamine]	76 to 100%	76 to 100%	76 to 100%	76 to 100%
CC(=O)Nc1nc(OCc2cccs2)ncc1F [Compound 6, N-[5-Fluoro-2-(thiophen-2-ylmethoxy)pyrimidin-4-yl]acetamide]	76 to 100%	76 to 100%	76 to 100%	76 to 100%
CC[Si](CC)(CC)Nc1nc(OCc2ccc(F)cc2)ncc1F [Compound 8, [5-Fluoro-2-(4-fluorobenzyloxy)pyrimidin-4-yl]triethylsilanylamine]	76 to 100%	76 to 100%	76 to 100%	76 to 100%
O=C(Nc1nc(OCc2ccc(F)cc2)ncc1F)c1snc(Cl)c1Cl [Compound 12, 3,4-Dichloroisothiazole-5-carboxylic acid [5-fluoro-2-(4-fluorobenzyl-oxy)pyrimidin-4-yl]amide]	76 to 100%	76 to 100%	76 to 100%	76 to 100%
Cc1ccc(COc2ncc(F)c(NCO)n2)cc1 [Compound 16, [5-Fluoro-2-(4-methylbenzyloxy)pyrimidin-4-ylamino]methanol]	76 to 100%	76 to 100%	76 to 100%	76 to 100%
OCNc1nc(OCc2ccc(F)cc2)ncc1F [Compound 17]	76 to 100%	76 to 100%	76 to 100%	76 to 100%
Fc1ccc(COc2ncc(F)c(NCOCc3ccccc3)n2)cc1 [Compound 18, Benzyloxymethyl[5-fluoro-2-(4-fluorobenzyloxy)pyrimidin-4-yl]amine]	51 to 75%	76 to 100%	51 to 75%	51 to 75%
CC(C)(C)C(=O)OCNc1nc(OCc2ccc(F)cc2)ncc1F [Compound 19, 2,2-Dimethylpropionic acid[5-fluoro-2-(4-fluorobenzyloxy)pyrimidin-4-ylamino]methyl ester]	76 to 100%	76 to 100%	51 to 75%	76 to 100%
Fc1ccc(COc2ncc(F)c(/N=C/N3CCCC3)n2)cc1 [Compound 21, [5-Fluoro-2-(4-fluorobenzyloxy)pyrimidin-4-yl]-[1-pyrrolidin-1-yl-methylidene]amine]	76 to 100%	76 to 100%	76 to 100%	76 to 100%
O/N=C\Nc1nc(OCc2ccc(F)cc2)ncc1F [Compound 22, N-[5-Fluoro-2-(4-fluorobenzyloxy)pyrimidin-4-yl]-N′-hydroxy-formamidine]	76 to 100%	76 to 100%	76 to 100%	76 to 100%
CN(C)/C=N/c1nc(O)ncc1F [Compound 25, N′-(5-Fluoro-2-hydroxy-pyrimidin-4-yl)-N,N-dimethyl-formamidine]	76 to 100%	76 to 100%	76 to 100%	76 to 100%
CCOC(=O)Oc1ncc(F)c(/N=C/N(C)C)n1 [Compound 26, Carbonic acid 4-(dimethylamino-methyleneamino)-5-fluoropyrimidin-2-yl ester ethyl ester]	76 to 100%	76 to 100%	76 to 100%	76 to 100%
CN(C)/C=N/c1nc(OC(=O)c2ccccc2)ncc1F [Compound 27, Benzoic acid 4-(dimethylamino-methyleneamino)-5-fluoropyrimidin-2-yl ester]	76 to 100%	76 to 100%	76 to 100%	76 to 100%
CN(C)/C=N/c1nc(OS(=O)(=O)c2ccccc2)ncc1F [Compound 28, Benzenesulfonic acid 4-(dimethylamino-methyleneamino)-5-fluoro-pyrimidin-2-yl ester]	76 to 100%	76 to 100%	76 to 100%	76 to 100%
Nc1nc(OS(=O)(=O)c2ccccc2)ncc1F [Compound 29, Benzenesulfonic acid 4-amino-5-fluoropyrimidin-2-yl ester]	76 to 100%	76 to 100%	51 to 75%	76 to 100%
Fc1ccc(COc2ncc(F)c(NCc3ccccc3F)n2)cc1 [Compound 30, (2-Fluorobenzyl)-[5-fluoro-2-(4-fluorobenzyloxy)pyrimidin-4-yl]amine]	51 to 75%	76 to 100%	51 to 75%	76 to 100%
COc1ccc(N(N)c2nc(OCc3cccc(OC)c3)ncc2F)cc1 [Compound 31, 5-Fluoro-2-(3-methoxybenzyloxy)-4-(1-(4-methoxyphenyl)-hydrazinyl)pyrimidine]	0 to 25%	0 to 25%	0 to 25%	0 to 25%

Structure (SMILES)	pest or weed control at 25 ppm [1]	pest or weed control at 100 ppm [2]	pest or weed control at 25 ppm [3]	pest or weed control at 100 ppm [4]
C=CCONc1nc(OCc2cccc(OC)c2)ncc1F [Compound 32, O-Allyl-N-(5-fluoro-2-(3-methoxybenzyloxy)pyrimidin-4-yl)hydroxylamine]	26 to 50%	76 to 100%	0 to 25%	76 to 100%
N#Cc1cccc(COc2ncc(F)c(N)n2)c1 [Compound 33]	76 to 100%	76 to 100%	76 to 100%	76 to 100%
N#Cc1cccc(COc2ncc(F)c(NC(=O)NCc3ccccc3F)n2)c1 [Compound 34, 1-[2-(3-Cyanobenzyloxy)-5-fluoropyrimidin-4-yl]-3-(2-fluorobenzyl)urea]	0 to 25%	0 to 25%	0 to 25%	0 to 25%
CCCNC(=S)Nc1nc(OCc2ccc(F)cc2)ncc1F [Compound 37]	76 to 100%	76 to 100%	76 to 100%	76 to 100%
Cc1ccc(COc2ncc(F)c(NS(C)(=O)=O)n2)cc1 [Compound 38, N-[5-Fluoro-2-(4-methylbenzyloxy)pyrimidin-4-yl]methanesulfonamide]	26 to 50%	26 to 50%	0 to 25%	26 to 50%
O=[N+]([O-])c1ccccc1SNc1nc(OCc2ccc(F)cc2)ncc1F [Compound 39, N-[5-Fluoro-2-(4-fluorobenzyloxy)-pyrimidin-4-yl]-S-(2-nitrophenyl)-thiohydroxylamine]	76 to 100%	76 to 100%	0 to 25%	0 to 25%
COc1cccc(COc2ncc(F)c(NS(N)(=O)=O)n2)c1 [Compound 43, [5-Fluoro-2-(3-methoxybenzyloxy)pyrimidin-4-yl]sulfamide]	26 to 50%	51 to 75%	51 to 75%	51 to 75%
COc1cccc(COc2ncc(F)c(NN)n2)c1 [Compound 44, 5-Fluoro-4-hydrazinyl-2-(3-methoxybenzyloxy)pyrimidine]	0 to 25%	76 to 100%	51 to 75%	76 to 100%
COc1cccc(COc2ncc(F)c(N/N=C/c3cccs3)n2)c1 [Compound 45, (E)-5-Fluoro-2-(3-methoxybenzyloxy)-4-(2-(thiophen-2-ylmethylene)-hydrazinyl)pyrimidine]	51 to 75%	76 to 100%	26 to 50%	26 to 50%
CCCNC(=S)Nc1nc(OCc2ccc(C)cc2)ncc1F [Compound 48]	76 to 100%	76 to 100%	76 to 100%	76 to 100%
CN(Oc1ncc(F)c(N)n1)C(=O)OC(C)(C)C [Compound 50, O-(4-Amino-5-fluoropyrimidin-2-yl)-t-butyl N-methyl-N-hydroxycarbamate]	26 to 50%	76 to 100%	26 to 50%	76 to 100%
CC(=O)Nc1nc(OCc2ccc(F)cc2)ncc1F [Compound 52]	76 to 100%	76 to 100%	51 to 75%	51 to 75%
CC(=S)Nc1nc(OCc2ccc(F)cc2)ncc1F [Compound 53, N-(5-Fluoro-2-(4-fluorobenzyloxy)pyrimidin-4-yl)ethanethioamide]	76 to 100%	76 to 100%	76 to 100%	76 to 100%
COc1cccc(COc2ncc(F)c(NC(=S)NCc3ccccc3F)n2)c1 [Compound 54]	51 to 75%	76 to 100%	0 to 25%	0 to 25%
Cn1ccc(COc2ncc(F)c(N)n2)n1 [Compound 55]	76 to 100%	76 to 100%	76 to 100%	76 to 100%
CC(Oc1ncc(F)c(N)n1)c1ccc2ccccc2c1 (stereo not drawn) [Compound 57]	76 to 100%	76 to 100%	76 to 100%	76 to 100%

Source: patent publication US9204653B2, “5-fluoro pyrimidine derivatives” (DOW AGROSCIENCES LLC, priority 2008, dated 2015)
